# Experimental data from patent US20050143391A1, “Heterocyclic amides with alpha-4 integrin antagonist activity” (J. Uriach Y Compañia S.A., priority 2002, published 2005).
# Biological target: T1, integrin α4β1 (Homo sapiens, UniProt P05556+P13612)
# T1 construct: endogenous in cells; host or cells: Jurkat cells
# Test: Inhibition of α4β1-dependent cell adhesion (Jurkat cells to peptide CS-1)
# Assay type: cell-based
# Conditions: adhesion of Jurkat cells to CS-1-coated plates; products preincubated with cells at 37° C. for 30 minutes; at least 6 product concentrations
# Procedure: Inhibition of α4β1-Dependent Cell Adhesion
# Inhibition of α4β1-dependent cell adhesion was assayed by evaluating the interaction between the peptide CS-1 (H-CLHGPEILDVPST-CONH2) and Jurkat cells (T lymphocyte cell line expressing activated integrin α4β1 but not integrin α4β7) after preincubation of said cells with the compounds of formula I to be tested. The peptide CS-1 was synthesized by conventional solid phase chemistry and purified by HPLC. Its identity was determined by elemental analysis and mass spectroscopy.
# 1.—Preparation of CS-1-Coated Plates
# 96-black well plates (Costar 3925) were used. 200 μL of 2% bovine serum albumin solution (BSA, Sigma α4503) was added per well and the plate was incubated for 2 hours at 37° C. The solution was discarded and the plate was washed twice with 200 μL of phosphate buffered saline solution (PBS, Gibco 14190-094) per well. Then, 200 μL of 10 μg/mL N-succinimidyl 3-(2-pyridyldithio)propionate solution (SPDP, Sigma P-3415) was added per well, and the plate was incubated at 37° C. for 30 minutes. The remaining solution was discarded and the plate was twice washed with 200 μL per well of PBS. Next, 200 μL of 25 μg/mL CS-1 peptide solution (equivalent to 5 μg/well) was added per well and the plate was incubated at 37° C. for 2 hours and then overnight at 4° C.
# 2.—Jurkat Cell Line: Culture and Fluorescent Labelling
# Jurkat cells were kept in culture at a density comprised between 2×10^5 and 1.5×10^6 cells/mL in 1640 RPMI medium (Gibco 21875-034) enriched with 10% fetal calf serum (FCS, Gibco 10270-106).
# 50×10^6 cells were extracted, centrifuged (1200 rpm, 10 min, room temperature) and the medium was discarded. Cells were resuspended in 5 mL of RPMI, and 10 μL of a 1 mM solution of the fluorophore calceine.AM (Molecular Probes, C-3100) was added. The suspension was incubated for 30 min at 37° C. in the darkness, with occasional shaking. 40 mL of RPMI was added to stop the labelling and the suspension was centrifuged (1200 rpm, 10 min, room temperature). The medium was discarded, and the labelled cells were washed with 40 mL of RPMI in order to remove the unincorporated fluorescent probe. Finally, cells were resuspended in RPMI enriched with 10% FCS to obtain a 8×10^6 cells/mL suspension.
# The plate previously prepared was twice washed with 200 μL per well of PBS and blocked with 200 μL of 1% BSA for at least 1 hour at room temperature.
# The products to be tested were dissolved in dimethylsulfoxide at a concentration of 10 mM and dilutions thereof were prepared in RPMI medium enriched with 10% FCS. The products were preincubated with the Jurkat cells at 37° C. for 30 minutes, at a product concentration comprised between 1 nM and 10 μM, at a cell density of 4×10^6 cells/mL and at a maximal dimethylsulfoxide concentration of 0.1%.
# 100 μL of the resulting cell-product supsension was added per well (cellular density 4×10^5 cells/well). The product was omitted in the control wells and cells or CS-1 were omitted in the blanks. The plate was incubated for 60 min at room temperature in the-darkness, was twice washed with 200 μL per well of RPMI and then 100 μL of PBS was added. The plate was read with a fluorescence reader at an excitation wavelength of 485 nm and at an emission wavelength of 530 nm.
# Maximal adhesion (100%) was determined as the average of the fluorescence intensities (FI) of the control wells, and the minimal adhesion as the average FI of the blanks. The adhesion inhibition percentage was determined using the following formula: [formula]
# The results are expressed as the IC50 values (concentration producing 50% inhibition). IC50 values were calculated by testing at least 6 product concentrations and by adjusting the inhibition percentages to a dose-response curve of variable slope.
# T1 sequence (P13612 34-1032): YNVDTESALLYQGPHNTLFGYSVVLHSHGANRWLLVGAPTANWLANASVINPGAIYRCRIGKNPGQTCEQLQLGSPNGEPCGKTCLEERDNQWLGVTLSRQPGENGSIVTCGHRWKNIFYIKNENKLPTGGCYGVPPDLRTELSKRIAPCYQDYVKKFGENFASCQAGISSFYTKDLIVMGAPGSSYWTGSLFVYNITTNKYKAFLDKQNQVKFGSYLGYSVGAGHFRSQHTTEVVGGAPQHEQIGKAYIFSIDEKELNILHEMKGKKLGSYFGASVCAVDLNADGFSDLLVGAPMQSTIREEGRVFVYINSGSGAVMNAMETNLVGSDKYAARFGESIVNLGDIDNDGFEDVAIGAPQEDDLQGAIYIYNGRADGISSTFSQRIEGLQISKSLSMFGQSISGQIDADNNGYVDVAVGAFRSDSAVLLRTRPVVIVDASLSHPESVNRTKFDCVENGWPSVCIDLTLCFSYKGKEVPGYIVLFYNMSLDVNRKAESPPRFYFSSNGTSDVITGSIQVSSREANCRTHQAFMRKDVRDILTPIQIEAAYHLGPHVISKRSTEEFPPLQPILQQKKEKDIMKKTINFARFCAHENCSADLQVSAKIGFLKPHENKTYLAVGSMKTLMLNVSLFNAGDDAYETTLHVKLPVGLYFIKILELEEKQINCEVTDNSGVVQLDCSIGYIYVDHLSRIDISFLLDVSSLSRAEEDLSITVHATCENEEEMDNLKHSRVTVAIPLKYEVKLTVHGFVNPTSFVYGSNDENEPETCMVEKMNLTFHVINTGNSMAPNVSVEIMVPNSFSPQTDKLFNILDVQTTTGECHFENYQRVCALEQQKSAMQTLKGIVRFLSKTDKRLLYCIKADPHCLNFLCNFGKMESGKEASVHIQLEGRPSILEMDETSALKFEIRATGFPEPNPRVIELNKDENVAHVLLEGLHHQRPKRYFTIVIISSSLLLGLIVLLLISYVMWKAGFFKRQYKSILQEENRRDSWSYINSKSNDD
# T1 sequence (P05556 21-798): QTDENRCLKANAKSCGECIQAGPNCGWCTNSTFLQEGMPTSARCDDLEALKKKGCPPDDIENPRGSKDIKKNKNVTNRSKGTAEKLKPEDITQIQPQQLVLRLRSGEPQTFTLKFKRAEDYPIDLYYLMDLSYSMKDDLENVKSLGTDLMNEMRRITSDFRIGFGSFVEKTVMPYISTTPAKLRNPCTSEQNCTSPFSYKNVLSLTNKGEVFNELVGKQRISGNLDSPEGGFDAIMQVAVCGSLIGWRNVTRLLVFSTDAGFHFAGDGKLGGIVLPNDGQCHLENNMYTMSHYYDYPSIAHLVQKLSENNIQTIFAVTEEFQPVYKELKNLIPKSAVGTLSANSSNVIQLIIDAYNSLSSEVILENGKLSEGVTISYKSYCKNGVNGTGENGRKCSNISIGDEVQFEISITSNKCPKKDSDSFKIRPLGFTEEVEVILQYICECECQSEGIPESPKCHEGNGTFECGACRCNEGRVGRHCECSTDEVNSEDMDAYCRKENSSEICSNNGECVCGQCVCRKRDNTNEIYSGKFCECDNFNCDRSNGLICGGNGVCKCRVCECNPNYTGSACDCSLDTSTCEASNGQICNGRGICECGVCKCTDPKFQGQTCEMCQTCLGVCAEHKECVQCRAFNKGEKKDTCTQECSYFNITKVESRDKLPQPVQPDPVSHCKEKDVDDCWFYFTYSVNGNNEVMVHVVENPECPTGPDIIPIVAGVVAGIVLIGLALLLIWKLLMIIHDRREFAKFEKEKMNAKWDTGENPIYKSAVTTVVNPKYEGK
row,IC50,SMILES
1,89 nM,"Cc1ccc(C)n1CC1CCN(C(=O)CC[C@H](NC(=O)[C@@H]2CCCN2S(=O)(=O)c2cc(Cl)cc(Cl)c2)C(=O)O)CC1 [Example 82, (2S)-2-[1-(3,5-Dichlorophenylsulfonyl)-L-prolylamino]-5-[4-(2,5-dimethylpyrrol-1-ylmethyl)piperidin-1-yl]-5-oxopentanoic Acid]"
2,49.8 nM,"CCCc1nc2cnccc2n1CC1CCN(C(=O)CC[C@H](NC(=O)[C@@H]2CCCN2S(=O)(=O)c2cc(Cl)cc(Cl)c2)C(=O)O)CC1 [Example 119, (2S)-2-[1-(3,5-Dichlorophenylsulfonyl)-L-prolylamino]-5-oxo-5-[4-(2-propylimidazo[4,5-c]pyridin-1-ylmethyl)piperidin-1-yl]pentanoic Acid]"
3,101 nM,"Cc1ccc(S(=O)(=O)N2CCC[C@H]2C(=O)N[C@@H](CCC(=O)N2CCN(Cc3ccccn3)CC2)C(=O)O)cc1 [Example 75, (2S)-5-Oxo-5-[4-(2-pyridylmethyl)piperazin-1-yl]-2-[[1-tosyl-L-prolyl]amino]pentanoic Acid]"
4,2.3 nM,"O=C(O)[C@H](CCC(=O)N1CCC(CCOC(=O)N2CCCC2)CC1)NC(=O)[C@@H]1CCCN1S(=O)(=O)c1cc(Cl)cc(Cl)c1 [Example 61, (2S)-2-[1-(3,5-Dichlorophenylsulfonyl)-L-prolylamino]-5-oxo-5-[4-[2-(pyrrolidin-1-ylcarbonyloxy)ethyl]piperidin-1-yl]pentanoic Acid]"
5,22 nM,"O=C(O)[C@H](CCC(=O)N1CCC(CN2Cc3ccccc3C2=O)CC1)NC(=O)[C@@H]1CCCN1S(=O)(=O)c1cc(Cl)cc(Cl)c1 [Example 54, (2S)-5-[4-[(1-Oxoisoindolin-2-yl)methyl]piperidin-1-yl]-2-[1-(3,5-dichlorophenylsulfonyl)-L-prolylamino]-5-oxopentanoic Acid]"
6,4.6 nM,"CCc1nc2cnccc2n1CC1CCN(C(=O)NC[C@H](NC(=O)[C@@H]2CCCN2S(=O)(=O)c2cc(Cl)cc(Cl)c2)C(=O)O)CC1 [Example 123, Lithium (2S)-2-[1-(3,5-dichlorophenylsulfonyl)-L-prolyl]amino-3-[[4-(2-ethylimidazo[4,5-c]pyridin-1-ylmethyl)piperidin-1-ylcarbonyl]amino]propionate]"
7,120 nM,"Cc1ccc(S(=O)(=O)N2CCC[C@H]2C(=O)N[C@@H](CNC(=O)N2CCC(CN3CCCCC3)CC2)C(=O)O)cc1 [Example 105, (2S)-3-[[4-(1-Piperidylmethyl)piperidin-1-ylcarbonyl]amino]-2-[N-tosyl-L-prolyl]aminopropionic Acid]"
8,305 nM,"O=C(O)[C@H](CCC(=O)N1CCC(COc2ccncc2)CC1)NC(=O)[C@@H]1CCCN1S(=O)(=O)c1cc(Cl)cc(Cl)c1 [Example 102, (2S)-2-[1-(3,5-Dichlorophenylsulfonyl)-L-prolylamino]-5-oxo-5-[4-(4-pyridyloxymethyl)piperidin-1-yl]pentanoic Acid]"
9,3.5 nM,COCCNC(=O)OCCC1CCN(C(=O)CC[C@H](NC(=O)[C@@H]2CCCN2S(=O)(=O)c2cc(Cl)cc(Cl)c2)C(=O)O)CC1 [Example 66]
10,33 nM,"O=C(O)[C@H](CCC(=O)N1CCC(CNC(=O)N2CCOCC2)CC1)NC(=O)[C@@H]1CCCN1S(=O)(=O)c1cc(Cl)cc(Cl)c1 [Example 67, (2S)-2-[1-(3,5-Dichlorophenylsulfonyl)-L-prolylamino]-5-[4-(4-morpholinylcarbonylaminomethyl)piperidin-1-yl]-5-oxopentanoic Acid]"
11,48 nM,"CCOCCn1c(CN2CCN(C(=O)CC[C@H](NC(=O)[C@@H]3CCCN3S(=O)(=O)c3ccc(C)cc3)C(=O)O)CC2)nc2ccccc21 [Example 74, (2S)-5-[4-[[1-(2-Ethoxyethyl)benzimidazol-2-yl]methyl]piperazin-1-yl]-5-oxo-2-[[1-tosyl-L-prolyl]amino]pentanoic Acid]"
12,13.3 nM,"CCc1nc2c(C)cc(C)nc2n1CCC1CCN(C(=O)CC[C@H](NC(=O)[C@@H]2CCCN2S(=O)(=O)c2cc(Cl)cc(Cl)c2)C(=O)O)CC1 [Example 59, (2S)-2-[1-(3,5-Dichlorophenylsulfonyl)-L-prolylamino]-5-[4-[2-(2-ethyl-5,7-dimethylimidazo[4,5-b]pyridin-3-yl)ethyl]piperidin-1-yl]-5-oxopentanoic Acid]"
13,65 nM,"CN(C)CC1CCN(C(=O)CC[C@H](NC(=O)[C@@H]2CCCN2S(=O)(=O)c2cc(Cl)cc(Cl)c2)C(=O)O)CC1 [Example 83, (2S)-2-[1-(3,5-Dichlorophenylsulfonyl)-L-prolylamino]-5-[4-(dimethylaminomethyl)piperidin-1-yl]-5-oxopentanoic Acid]"
14,83.9 nM,"CCN(CC)CC1CCN(C(=O)CC[C@H](NC(=O)[C@@H]2CCCN2S(=O)(=O)c2cc(Cl)cc(Cl)c2)C(=O)O)CC1 [Example 88, (2S)-2-[1-(3,5-Dichlorophenylsulfonyl)-L-prolylamino]-5-[4-(diethylaminomethyl)piperidin-1-yl]-5-oxopentanoic Acid]"
15,193 nM,"Cc1ccc(S(=O)(=O)N2CCC[C@H]2C(=O)N[C@@H](CCC(=O)N2CCC(CNc3nccc(C(F)(F)F)n3)CC2)C(=O)O)cc1 [Example 64, (2S)-5-Oxo-2-[1-tosyl-L-prolyl]amino-5-[4-[[4-(trifluoromethyl)pyrimidin-2-yl]aminomethyl]piperidin-1-yl]pentanoic Acid]"
16,122 nM,"CN1CCN(C(=O)NCC2CCN(C(=O)CC[C@H](NC(=O)[C@@H]3CCCN3S(=O)(=O)c3cc(Cl)cc(Cl)c3)C(=O)O)CC2)CC1 [Example 97, (2S)-2-[1-(3,5-Dichlorophenylsulfonyl)-L-prolylamino]-5-[4-[[(4-methylpiperazin-1-yl)carbonylamino]methyl]piperidin-1-yl]-5-oxopentanoic Acid]"
17,17.7 nM,"CN(C)CC1CCN(C(=O)OC[C@H](NC(=O)[C@@H]2CCCN2S(=O)(=O)c2cc(Cl)cc(Cl)c2)C(=O)O)CC1 [Example 98, (2S)-2-[1-(3,5-Dichlorophenylsulfonyl)-L-prolyl]amino-3-[4-(dimethylaminomethyl)piperidin-1-ylcarbonyloxy]propionic Acid]"
18,64.6 nM,"CCN(CC)CCC1CCN(C(=O)CC[C@H](NC(=O)[C@@H]2CCCN2S(=O)(=O)c2cc(Cl)cc(Cl)c2)C(=O)O)CC1 [Example 91, (2S)-2-[1-(3,5-Dichlorophenylsulfonyl)-L-prolylamino]-5-[4-[2-(diethylamino)ethyl]piperidin-1-yl]-5-oxopentanoic Acid]"
19,188 nM,"Cc1ccc(S(=O)(=O)N2CCC[C@H]2C(=O)N[C@@H](CCC(=O)N2CCC(CN3CCCC3=O)CC2)C(=O)O)cc1 [Example 62, (2S)-5-Oxo-5-[4-[(2-oxopyrrolidin-1-yl)methyl]piperidin-1-yl]-2-[1-tosyl-L-prolylamino]pentanoic Acid]"
20,14.1 nM,"O=C(O)[C@H](CCC(=O)N1CCC(CN2CCCCC2)CC1)NC(=O)[C@@H]1CCCN1S(=O)(=O)c1cc(Cl)cc(Cl)c1 [Example 94, (2S)-2-[1-(3,5-Dichlorophenylsulfonyl)-L-prolylamino]-5-oxo-5-[4-(1-piperidylmethyl)piperidin-1-yl]pentanoic Acid]"
21,23 nM,"CC(C)(C)NC(=O)NCC1CCN(C(=O)CC[C@H](NC(=O)[C@@H]2CCCN2S(=O)(=O)c2cc(Cl)cc(Cl)c2)C(=O)O)CC1 [Example 56, (2S)-5-[4-[(N′-tert-Butylureido)methyl]piperidin-1-yl]-2-[1-(3,5-dichlorophenylsulfonyl)-L-prolylamino]-5-oxopentanoic Acid]"
